Patent US20250108038A1 (priority 2023, published 2025)
Values joined by “and” are separate entries in the source; they are usually repeats but may differ in a detail not shown here. Equal entries are not always repeated.

System: Long Evans rats
Test: Behavioral satiety sequence (BSS)
Assay type: in vivo, Long Evans rat
Excerpt: The Behavioural Satiety Sequence (BSS) is a technique used to evaluate physiological satiety. It is based on the expression of a sequence of behaviors including eating, grooming, locomotor activity, followed by resting, which are typically observed in rodents post-ingestion (Halford et al, 1998, Pharmacology Biochemistry and Behaviour. 61(2): 159-168). The BSS is a widely used model for determining the effects of novel pharmaceuticals on food intake and measures of satiety in rodents (Oliveira et al, 2011, Revista de Nutrição. 24(4) 619-628), and to discriminate the cause of reduced food intake following pharmacological manipulation. For example, treatments that may reduce food intake by non-specific mechanisms, such as immobility, malaise, and taste adulteration, will disrupt this sequence (Halford et al, 1998, Pharmacology Biochemistry and Behaviour. 61(2): 159-168).
Specifically, 12 male Long-Evans rats were food-deprived for 22 h with a 2 h feeding period each day. Rats were trained to consume daily food during the 2 h period over 25 days. The testing phase was initiated once the rats consistently consumed 16-18 g of food per day with ≤10% variance in amount of feed consumed. Feeding took place in designated individual boxes in a quiet room separate from the housing room. Continuous remote monitoring via video camera during feeding was used to assess the BSS. Food consumption was measured by weighing the total available food before and after the 2 h feeding window, correcting for spillage. Lorcaserin (1 mg/kg) was included as a reference control (Higgins et al, 2011, Neuropsychopharmacology. 37(5): 1177-1191). Subjects were tested using a repeated-measures, Latin square design with 2-3 days wash-out between treatment cycles.
On scheduled test days, animals were monitored remotely via video camera during the feeding access period. The occurrence of four mutually exclusive behaviors (eating/drinking, grooming, active, rest) were individually scored. Over the 2 h feeding period, behaviors were assessed every 30 seconds. Scores were compiled into 23 5 min timebins (timebin 24 was removed due to early removal of animals) and the frequency of each behavior within each timebin was calculated to determine a temporal frequency of each measure (Rodgers et al, 2010, Pharmacology Biochemistry and Behaviour. 97: 3-14). Percentage time was plotted for each behavioral sequence in each timebin to compare between treatment groups (Higgins et al, 2011, Neuropsychopharmacology. 37(5): 1177-1191).

[1] = Compound I-19 0.1 mg/kg, AVG of animals LT-1 to LT-12, 0-0.5 hours
[2] = Compound I-19 0.1 mg/kg, raw data per animal LT-1 to LT-12, 0-0.5 hours
[3] = Compound I-19 0.1 mg/kg, raw score per animal (LT-1 to LT-12)
[4] = Compound I-19 0.3 mg/kg, AVG of animals LT-1 to LT-12

## Clc1ccc(C2(OCC3OCCO3)c3ccccc3C3=NCCN32)cc1 (stereo not drawn) [Compound I-19]
[1]
  BSS scoring E (eating/drinking), Time Bin 4 (15-20 TOTAL), AVG: 0.87
  BSS scoring E (eating/drinking), Time Bin 5 (20-25 TOTAL), AVG: 0.89
  BSS scoring E (eating/drinking), Time Bin 6 (25-30 TOTAL), AVG: 0.81
  BSS scoring G (grooming), Time Bin 1 (0-5 TOTAL), AVG: 0.02
  BSS scoring G (grooming), Time Bin 2 (5-10 TOTAL), AVG: 0.00
  BSS scoring G (grooming), Time Bin 3 (10-15 TOTAL), AVG: 0.03
  BSS scoring G (grooming), Time Bin 4 (15-20 TOTAL), AVG: 0.03
  BSS scoring G (grooming), Time Bin 5 (20-25 TOTAL), AVG: 0.00
  BSS scoring G (grooming), Time Bin 6 (25-30 TOTAL), AVG: 0.04
  BSS scoring R (resting), Time Bin 1 (0-5 TOTAL), AVG: 0.00
  BSS scoring R (resting), Time Bin 2 (5-10 TOTAL), AVG: 0.00
  BSS scoring R (resting), Time Bin 3 (10-15 TOTAL), AVG: 0.00
  BSS scoring R (resting), Time Bin 4 (15-20 TOTAL), AVG: 0.02
  BSS scoring R (resting), Time Bin 5 (20-25 TOTAL), AVG: 0.03
  BSS scoring R (resting), Time Bin 6 (25-30 TOTAL), AVG: 0.02
[2]
  BSS scoring A (active), Time Bin 1 (0-5 TOTAL): 0 (3×) and 1 (7×) and 2 (2×)
  BSS scoring A (active), Time Bin 2 (5-10 TOTAL): 1 (5×) and 0 (7×)
  BSS scoring A (active), Time Bin 3 (10-15 TOTAL): 1 (3×) and 0 (9×)
  BSS scoring A (active), Time Bin 4 (15-20 TOTAL): 5 and 0 (8×) and 4 and 1 (2×)
  BSS scoring A (active), Time Bin 5 (20-25 TOTAL): 1 (3×) and 0 (7×) and 3 (2×)
  BSS scoring A (active), Time Bin 6 (25-30 TOTAL): 3 (2×) and 1 (6×) and 0 (3×) and 4
  BSS scoring E (eating/drinking), Time Bin 1 (0-5 TOTAL): 10 (3×) and 8 (4×) and 9 (5×)
  BSS scoring E (eating/drinking), Time Bin 2 (5-10 TOTAL): 9 (5×) and 10 (7×)
  BSS scoring E (eating/drinking), Time Bin 3 (10-15 TOTAL): 9 (6×) and 10 (6×)
  BSS scoring E (eating/drinking), Time Bin 4 (15-20 TOTAL): 5 and 10 (5×) and 9 (5×) and 4
  BSS scoring E (eating/drinking), Time Bin 5 (20-25 TOTAL): 9 (3×) and 10 (6×) and 6 and 7 (2×)
  BSS scoring E (eating/drinking), Time Bin 6 (25-30 TOTAL): 5 (2×) and 8 (4×) and 9 (2×) and 10 (3×) and 7
  BSS scoring G (grooming), Time Bin 1 (0-5 TOTAL): 0 (10×) and 1 (2×)
  BSS scoring G (grooming), Time Bin 2 (5-10 TOTAL): 0
  BSS scoring G (grooming), Time Bin 3 (10-15 TOTAL): 0 (9×) and 1 (3×)
  BSS scoring G (grooming), Time Bin 4 (15-20 TOTAL): 0 (9×) and 1 (3×)
  BSS scoring G (grooming), Time Bin 5 (20-25 TOTAL): 0
  BSS scoring G (grooming), Time Bin 6 (25-30 TOTAL): 0 (7×) and 1 (5×)
  BSS scoring R (resting), Time Bin 1 (0-5 TOTAL): 0
  BSS scoring R (resting), Time Bin 2 (5-10 TOTAL): 0
  BSS scoring R (resting), Time Bin 3 (10-15 TOTAL): 0
  BSS scoring R (resting), Time Bin 4 (15-20 TOTAL): 0 (10×) and 1 (2×)
  BSS scoring R (resting), Time Bin 5 (20-25 TOTAL): 0 (9×) and 1 (2×) and 2
  BSS scoring R (resting), Time Bin 6 (25-30 TOTAL): 2 and 0 (11×)
[3]
  BSS scoring A (active), Time Bin 19 (90-95 TOTAL): 8 and 2 (6×) and 5 and 1 and 7 and 0 and 3
  BSS scoring A (active), Time Bin 20 (95-100 TOTAL): 1 (4×) and 0 (4×) and 2 (3×) and 6
  BSS scoring A (active), Time Bin 21 (100-105 TOTAL): 0 (8×) and 3 and 1 and 4 and 2
  BSS scoring A (active), Time Bin 22 (105-110 TOTAL): 0 (6×) and 4 and 1 (2×) and 2 and 5 and 3
  BSS scoring A (active), Time Bin 23 (110-115 TOTAL): 1 and 0 (5×) and 4 and 2 (2×) and 8 and 5 and 3
  BSS scoring A (active), Time Bin 24 (115-120 TOTAL): 0 (5×) and 4 and 1 (2×) and 2 (2×) and 3 and 6
  BSS scoring E (eating/drinking), Time Bin 19 (90-95 TOTAL): 2 and 4 (3×) and 6 and 0 and 7 (3×) and 3 and 10 and 8
  BSS scoring E (eating/drinking), Time Bin 20 (95-100 TOTAL): 9 and 5 and 10 (3×) and 7 (2×) and 0 and 8 and 6 (2×) and 3
  BSS scoring E (eating/drinking), Time Bin 21 (100-105 TOTAL): 10 (3×) and 3 and 9 (3×) and 0 and 8 (2×) and 5 and 6
  BSS scoring E (eating/drinking), Time Bin 22 (105-110 TOTAL): 10 (2×) and 3 and 9 (2×) and 0 and 6 (2×) and 8 (3×) and 4
  BSS scoring E (eating/drinking), Time Bin 23 (110-115 TOTAL): 9 (5×) and 10 and 3 (2×) and 0 and 4 and 5 and 7
  BSS scoring E (eating/drinking), Time Bin 24 (115-120 TOTAL): 10 (2×) and 5 and 8 (3×) and 2 and 0 (2×) and 6 and 1 and 4
  BSS scoring G (grooming), Time Bin 19 (90-95 TOTAL): 0 (8×) and 1 (4×)
  BSS scoring G (grooming), Time Bin 20 (95-100 TOTAL): 0 (8×) and 2 (2×) and 1 (2×)
  BSS scoring G (grooming), Time Bin 21 (100-105 TOTAL): 0 (8×) and 1 (3×) and 2
  BSS scoring G (grooming), Time Bin 22 (105-110 TOTAL): 0 (8×) and 2 and 1 (3×)
  BSS scoring G (grooming), Time Bin 23 (110-115 TOTAL): 0 (8×) and 1 (4×)
  BSS scoring G (grooming), Time Bin 24 (115-120 TOTAL): 0 (9×) and 1 (2×) and 2
  BSS scoring R (resting), Time Bin 19 (90-95 TOTAL): 0 (7×) and 4 and 1 (2×) and 9 and 3
  BSS scoring R (resting), Time Bin 20 (95-100 TOTAL): 0 (6×) and 2 (2×) and 10 and 1 (3×)
  BSS scoring R (resting), Time Bin 21 (100-105 TOTAL): 0 (7×) and 4 and 1 (2×) and 10 and 2
  BSS scoring R (resting), Time Bin 22 (105-110 TOTAL): 0 (4×) and 1 (5×) and 8 and 3 and 2
  BSS scoring R (resting), Time Bin 23 (110-115 TOTAL): 0 (3×) and 2 (2×) and 1 (6×) and 4
  BSS scoring R (resting), Time Bin 24 (115-120 TOTAL): 0 (8×) and 1 (2×) and 8 and 5
[4]
  BSS scoring A (active), Time Bin 19 (90-95 TOTAL), AVG: 0.21
  BSS scoring A (active), Time Bin 20 (95-100 TOTAL), AVG: 0.17
  BSS scoring A (active), Time Bin 21 (100-105 TOTAL), AVG: 0.06
  BSS scoring A (active), Time Bin 22 (105-110 TOTAL), AVG: 0.08
  BSS scoring A (active), Time Bin 23 (110-115 TOTAL), AVG: 0.28
  BSS scoring A (active), Time Bin 24 (115-120 TOTAL), AVG: 0.14
  BSS scoring E (eating/drinking), Time Bin 19 (90-95 TOTAL), AVG: 0.63
  BSS scoring E (eating/drinking), Time Bin 20 (95-100 TOTAL), AVG: 0.69
  BSS scoring E (eating/drinking), Time Bin 21 (100-105 TOTAL), AVG: 0.73
  BSS scoring E (eating/drinking), Time Bin 22 (105-110 TOTAL), AVG: 0.69
  BSS scoring E (eating/drinking), Time Bin 23 (110-115 TOTAL), AVG: 0.52
  BSS scoring E (eating/drinking), Time Bin 24 (115-120 TOTAL), AVG: 0.44
